# Results from ChEMBL document CHEMBL1201862, “PubChem BioAssay data set” (2004).
#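 Cultured in 96-well plates, cells were exposed to test compound for 48 hours across five concentrations. GI50 is the concentration that inhibits growth by half.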 Activity calls are given as the source filed them. Cut-off read from the data, not from the text of the source: active = GI50 up to about 1.1 µM and inactive = higher.
# Columns and labels:
# Assay in all cases: inhibition of tumour cell growth, NCI panel, 48 h
# RXF 393 = tested on: RXF 393
# NCI-H23 = tested on: NCI-H23
# OVCAR-5 = tested on: OVCAR-5
# NCI-H522 = tested on: NCI-H522
# HCT-15 = tested on: HCT-15
# BT-549 = tested on: BT-549
# NCI-H226 = tested on: NCI-H226
# MOLT-4 = tested on: MOLT-4
# NCI/ADR-RES = tested on: NCI/ADR-RES
# TK-10 = tested on: TK-10
# MDA-MB-231 = tested on: MDA-MB-231
# RPMI-8226 = tested on: RPMI-8226
# MCF7 = tested on: MCF7
# SK-OV-3 = tested on: SK-OV-3
# SF-539 = tested on: SF-539
# U-251 = tested on: U-251
# HCC 2998 = tested on: HCC 2998
# HOP-62 = tested on: HOP-62
# LOX IMVI = tested on: LOX IMVI
# SNB-19 = tested on: SNB-19
# SNB-75 = tested on: SNB-75
# SN12C = tested on: SN12C
# UO-31 = tested on: UO-31
# HOP-92 = tested on: HOP-92
# M14 = tested on: M14
# SR = tested on: SR
# Malme-3M = tested on: Malme-3M
# OVCAR-4 = tested on: OVCAR-4
# MDA-MB-435 = tested on: MDA-MB-435
# HL-60 = tested on: HL-60
# HCT-116 = tested on: HCT-116
# SK-MEL-28 = tested on: SK-MEL-28
# CAKI-1 = tested on: CAKI-1
# 786-0 = tested on: 786-0
# ACHN = tested on: ACHN
# IGROV-1 = tested on: IGROV-1
# SK-MEL-2 = tested on: SK-MEL-2
# NCI-H460 = tested on: NCI-H460
# OVCAR-3 = tested on: OVCAR-3
# T47D = tested on: T47D
# SK-MEL-5 = tested on: SK-MEL-5
# DU-145 = tested on: DU-145
# KM12 = tested on: KM12
# MDA-N = tested on: MDA-N
# COLO 205 = tested on: COLO 205
# UACC-257 = tested on: UACC-257
# SF-295 = tested on: SF-295
# CCRF-CEM = tested on: CCRF-CEM
# SF-268 = tested on: SF-268
# EKVX = tested on: EKVX
# UACC-62 = tested on: UACC-62
# A498 = tested on: A498
# A549 = tested on: A549
# PC-3 = tested on: PC-3
# SW-620 = tested on: SW-620
# Hs-578T = tested on: Hs-578T
# HT-29 = tested on: HT-29
# K562 = tested on: K562
# OVCAR-8 = tested on: OVCAR-8
smiles,measurement,setting,value
C=C1C(=O)O[C@H]2C1C[C@@H](O)/C(C)=C/CC[C@@]1(C)O[C@H]21 (some centres undefined),GI50,RXF 393,7.62 µM (inactive)
same,GI50,NCI-H23,13.6 µM (inactive)
same,GI50,OVCAR-5,> 39.4 µM (inactive)
same,GI50,NCI-H522,2.97 µM (inactive)
same,GI50,HCT-15,12.1 µM
same,GI50,BT-549,8.04 µM (inactive)
same,GI50,NCI-H226,> 54.3 µM (inactive)
same,GI50,MOLT-4,6.93 µM (inactive)
same,GI50,NCI/ADR-RES,30.5 µM (inactive)
same,GI50,TK-10,12 µM (inactive)
same,GI50,MDA-MB-231,18.6 µM (inactive)
same,GI50,RPMI-8226,4.76 µM (inactive)
same,GI50,MCF7,8.57 µM (inactive)
same,GI50,SK-OV-3,49.7 µM (inactive)
same,GI50,SF-539,19.9 µM (inactive)
same,GI50,U-251,24.4 µM (inactive)
same,GI50,HCC 2998,33.1 µM (inactive)
same,GI50,HOP-62,> 59.6 µM (inactive)
same,GI50,LOX IMVI,9.16 µM (inactive)
same,GI50,SNB-19,52 µM (inactive)
same,GI50,SNB-75,16.4 µM (inactive)
same,GI50,SN12C,29.2 µM (inactive)
same,GI50,UO-31,18.7 µM (inactive)
same,GI50,HOP-92,8.89 µM (inactive)
same,GI50,M14,9.35 µM (inactive)
same,GI50,SR,7.64 µM (inactive)
same,GI50,Malme-3M,4.08 µM (inactive)
same,GI50,OVCAR-4,11.4 µM (inactive)
same,GI50,MDA-MB-435,8.2 µM (inactive)
same,GI50,HL-60,2.87 µM (inactive)
same,GI50,HCT-116,8.93 µM (inactive)
same,GI50,SK-MEL-28,15.2 µM (inactive)
same,GI50,CAKI-1,3.03 µM (inactive)
same,GI50,786-0,10.5 µM (inactive)
same,GI50,ACHN,9.27 µM (inactive)
same,GI50,IGROV-1,12.7 µM (inactive)
same,GI50,SK-MEL-2,24.3 µM (inactive)
same,GI50,NCI-H460,22.4 µM (inactive)
same,GI50,OVCAR-3,3.27 µM (inactive)
same,GI50,T47D,9.12 µM (inactive)
same,GI50,SK-MEL-5,16.1 µM (inactive)
same,GI50,DU-145,20.7 µM (inactive)
same,GI50,KM12,> 100 µM (inactive)
same,GI50,MDA-N,10.3 µM (inactive)
same,GI50,COLO 205,4.93 µM (inactive)
same,GI50,UACC-257,13.1 µM (inactive)
same,GI50,SF-295,> 55.1 µM (inactive)
same,GI50,CCRF-CEM,3.17 µM (inactive)
same,GI50,SF-268,39 µM (inactive)
same,GI50,EKVX,12.2 µM (inactive)
same,GI50,UACC-62,24.7 µM (inactive)
same,GI50,A498,25 µM (inactive)
same,GI50,A549,> 55.1 µM (inactive)
same,GI50,PC-3,23 µM (inactive)
same,GI50,SW-620,4.81 µM (inactive)
same,GI50,Hs-578T,31.3 µM (inactive)
same,GI50,HT-29,22.9 µM (inactive)
same,GI50,K562,6.37 µM (inactive)
same,GI50,OVCAR-8,15.2 µM (inactive)
